The values below come from US8912318B2, “Nucleobase-functionalized conformationally restricted nucleotides and oligonucleotides for targeting nucleic acids” (University of Idaho, priority 2009, dated 2014).

Where two headings read alike, the source gives them in different places.

Usually Tm stands for the temperature at which the thermal transition is half complete. A word on the ΔTm: it is the shift of the melting midpoint relative to a reference.

Series [1] concerns complementary or mismatched DNA targets. Particulars: cited from earlier work.
Series [2] shares this test system. As to the kind of experiment: Fluorescence quantum yields and extinction coefficients with DNA targets. It counts as physicochemical.
The subject of another series is mismatched DNA targets. The series is described as follows: UV thermal denaturation of 13-mer fluorophore probes with mismatched DNA targets. It counts as binding. Particulars: for mismatch ΔTm: mismatched vs complementary duplex; for Tm / ΔTm: DNA: 3′-d(GCG TTG BGT TGC G); for ΔTm: relative to B = A.
The subject of a further series is complementary DNA. The series is described as follows: UV thermal denaturation of 13-mer fluorophore probes with complementary DNA. It counts as binding. The following applies: B = A.
A further series has as its system complementary RNA. The series is described as follows: UV thermal denaturation of 13-mer probes with complementary RNA. The series is classed as binding. The following applies: B = A.
The next series relates to mismatched RNA targets. The series is described as follows: UV thermal denaturation of 13-mer probes with mismatched RNA targets. It counts as binding.
Series [3] deals with complementary or mismatched DNA targets. As to the kind of experiment: Steady-state fluorescence emission intensity with DNA targets. Particulars: for discrimination factor Im/Imm, range: intensity of duplex with complementary DNA divided by intensity of SSP or mismatched duplexes.
The subject of series [4] is dsDNA target (SEQ ID NO: 2 : SEQ ID NO: 3). As to the kind of experiment: UV thermal denaturation of triplexes formed by TFOs with dsDNA. The series is classed as binding. Particulars: for Tm of triplex: pH 7.0 phosphate buffer, 140 mM KCl, 1.0 μM each strand; for ΔTm/mod of triplex: relative to reference DNA TFO T1, per modification.
Series [5] concerns Hoogsteen mismatched dsDNA targets (SEQ ID NO: 4 : SEQ ID NO: 5), B:B′ = T:A, C:G, G:C. The series is described as follows: Thermal denaturation of Hoogsteen mismatched triplexes in the presence of Mg2+ ions. Particulars: for Tm of triplex: 10 mM MgCl2; for ΔTm: change relative to matched triplex. The series is classed as binding. The method, then:
(§1) Concentrations of all TFOs were determined using the extinction coefficient of 118500 L×(mol×cm)-1. 1 mL solution containing 1.0 nmol of each strand was denatured by heating and subsequently cooled to the starting temperature of the experiment in quartz optical cells with a path-length of 1.0 cm. Thermal denaturation profiles were recorded on a Cary 100 UV/VIS spectrophotometer equipped with a 12-cell Peltier temperature controller using a ramp of 0.5° C./min. Thermal denaturation temperatures (Tm) for triplex to duplex transitions were determined as the first derivative of difference thermal denaturation profiles (dA260 vs. T), which were obtained by subtracting the thermal denaturation profile of the dsDNA target (always included as one of the samples in multicell holder of UV-Vis spectrophotometer) from the raw thermal denaturation profile of the TFO+dsDNA (FIG. 13). Reported Tm-values are an average of at least two experiments within ±1.0° C.

The subject of series [6] is dsDNA target (SEQ ID NO: 4 : SEQ ID NO: 5), B:B′ = A:T. As to the kind of experiment: Thermal denaturation of matched triplexes in the presence of Mg2+ ions. The series is classed as binding. The following applies: A:T (match); 10 mM MgCl2. The method, then:
as §1

The mark [7] stands for this setting: complementary DNA, [Na+] = 110 mM, pH 7.0, 1.0 μM each strand.
[8] abbreviates: vs. the C-mismatched DNA target.

Regarding `c1ccc(-c2c3ccccc3c(-c3ccccc3)c3ccccc23)cc1` [9,10-diphenylanthracene], in series [1], the “fluorescence quantum yield ΦF” value is 0.95.
Regarding `O=C(NCC#Cc1cn([C@H]2C[C@H](O)[C@@H](CO)O2)c(=O)[nH]c1=O)c1ccc2ccc3cccc4ccc1c2c34` [P″, 5-[3-(1-pyrenecarboxamido)propynyl]-2′-deoxyuridine], the “Fluorescence quantum yield (φF)” value in [2] (DNA target B = A, T = 5° C.) was 0.33-0.58.
Turning to `O=C(O)CCCc1ccc2ccc3cccc4ccc1c2c34` [pyrenebutanoic acid], the “fluorescence quantum yield ΦF” value in series [2] (in MeOH, relative to 9,10-diphenylanthracene) is given as 0.069. In [1], the “fluorescence quantum yield ΦF, reported value” is reported as 0.065.
Regarding “ON1: unmodified reference strand 5′-CG CAA ATA AAC GC (DNA CGCAAATAAACGC; unmodified DNA) [reference compound]”, the “mismatch ΔTm” value is −10.0 °C in the series on mismatched DNA targets (DNA target B = C), −5.0 °C in the series with mismatched DNA targets (DNA target B = G) and −9.0 °C in the series on mismatched DNA targets (DNA target B = T). Moreover, in the series with complementary DNA (setting [7]), the melting temperature (Tm) amounted to 48.5 °C.
As to “ON2: unmodified reference strand 5′-CG CAA CTC AAC GC (DNA CGCAACTCAACGC; DNA, backbone not given here) [reference compound]”, the midpoint of thermal melting (Tm) came out at 51.5 °C with complementary RNA; 42.0 °C with mismatched DNA targets (B = C); 48.5 °C in the series with mismatched DNA targets (B = G); 46.5 °C in the series with mismatched DNA targets (B = T); 55.5 °C in the series on complementary DNA (DNA: 3′-d(GCG TTG BGT TGC G)); 55.5 °C in the series with complementary DNA (setting [7]). Also, the “mismatch ΔTm” value in the series on mismatched DNA targets (DNA target B = C) was −13.5 °C; in the series on mismatched DNA targets (DNA target B = G), −7.0 °C; with mismatched DNA targets (DNA target B = T) it was −9.0 °C. The figures for the ΔTm entry with mismatched DNA targets (B = C), in the series with mismatched DNA targets (B = G) and in the series on mismatched DNA targets (B = T) were “(−13.5) ° C”, “(−7.0) ° C” and “(−9.0) ° C”, respectively. The “mismatch DTm” value in the series with mismatched RNA targets (RNA target B = C) was −15.5 °C; with mismatched RNA targets (RNA target B = G), −3.0 °C; in the series on mismatched RNA targets (RNA target B = U) it was −13.5 °C.
As for “ON10: 5′-CG CAA CPC AAC GC (DNA CGCAACNCAACGC; listed as DNA, chemistry not fully specified)”, in series [3], the “discrimination factor Im/Imm, range” value is recorded as 7.3-15.9. Moreover, the Tm in the series on mismatched DNA targets (B = C) came out at 43.0 °C; with mismatched DNA targets (B = G), 48.0 °C; in the series on mismatched DNA targets (B = T), 46.0 °C; with complementary DNA (DNA: 3′-d(GCG TTG BGT TGC G)), 52.5 °C. Also, the ΔTm result in the series with mismatched DNA targets (B = C) is given as “(−9.5) ° C”; in the series on mismatched DNA targets (B = G), “(−4.5) ° C”; in the series with mismatched DNA targets (B = T), “(−6.5) ° C”.
For “ON11: 5′-CG CAA GPG AAC GC (DNA CGCAAGNGAACGC; listed as DNA, chemistry not fully specified)”, in [3], the “discrimination factor Im/Imm, range” value is given as 8.3-41.9.
Still for that read-out and setting: the result for “ON13: 5′-CG CAA AP′A AAC GC (DNA CGCAAANAAACGC; modified nucleotide P', chemistry not fully specified)” reads 3.4-14.1.
“ON14: 5′-CG CAA CP′C AAC GC (DNA CGCAACNCAACGC; modified nucleotide P', chemistry not fully specified)”: the “discrimination factor Im/Imm” value in series [3] (setting [8]) is 5.8. The Tm with mismatched DNA targets (B = C) was determined as 40.5 °C; in the series on mismatched DNA targets (B = G) it was 44.5 °C; with mismatched DNA targets (B = T), 44.5 °C; in the series with complementary DNA (DNA: 3′-d(GCG TTG BGT TGC G)), 51.5 °C. Further, the ΔTm result in the series on mismatched DNA targets (B = C) is recorded as “(−11.5) ° C”; with mismatched DNA targets (B = G) it was “(−7.0) ° C”; in the series on mismatched DNA targets (B = T), “(−7.0) ° C”. For the same molecule, in series [2] (setting [8]), the “ΦF,m/ΦF,mm” value is roughly 3.2.
On to “ON16: 5′-CG CAA TP′T AAC GC (DNA CGCAATNTAACGC; modified nucleotide P', chemistry not fully specified)”, for which, in series [3], the “discrimination factor Im/Imm, range” value is reported as 2.9-11.4.
Take “SEQ ID NO: 9: 5′-d(CGC AAC βCA ACG C (DNA CGCAACNCAACGC; β modified nucleotide, chemistry not fully specified)”: the midpoint of thermal melting (Tm) with mismatched DNA targets (B = C) was determined as 43.0 °C; in the series with mismatched DNA targets (B = G) it was 46.5 °C; in the series with mismatched DNA targets (B = T) it was 48.5 °C; in the series with complementary DNA (DNA: 3′-d(GCG TTG BGT TGC G)) it was 56.5 °C. The ΔTm result is “(−13.0) ° C” in the series on mismatched DNA targets (B = C), “(−10.0) ° C” in the series with mismatched DNA targets (B = G) and “(−8.0) ° C” in the series with mismatched DNA targets (B = T).
“SEQ ID NO: 10: 5′-d(CGC AAC γCA ACG C (DNA CGCAACNCAACGC; γ modified nucleotide, chemistry not fully specified)”: the Tm with mismatched DNA targets (B = C) worked out at 45.5 °C; with mismatched DNA targets (B = G), 46.5 °C; in the series with mismatched DNA targets (B = T) it was 45.5 °C; in the series with complementary DNA (DNA: 3′-d(GCG TTG BGT TGC G)), 47.0 °C. Moreover, the ΔTm result in the series on mismatched DNA targets (B = C) is listed as “(−1.5) ° C”; with mismatched DNA targets (B = G) it was “(-0.5) ° C”; in the series with mismatched DNA targets (B = T) it was “(−1.5) ° C”.
With “SEQ ID NO: 11: 5′-d(CGC AAC αCA ACG C (DNA CGCAACNCAACGC; α modified nucleotide, chemistry not fully specified)”, the melting temperature (Tm) in the series with mismatched DNA targets (B = C) was 43.0 °C; in the series on mismatched DNA targets (B = G), 46.0 °C; in the series on mismatched DNA targets (B = T), 45.0 °C; in the series on complementary DNA (DNA: 3′-d(GCG TTG BGT TGC G)), 44.5 °C. Moreover, the ΔTm result is “(−1.5) ° C” with mismatched DNA targets (B = C), “(+1.5) ° C” in the series with mismatched DNA targets (B = G) and “(+0.5) ° C” with mismatched DNA targets (B = T).
For “V1′: TFO TTT TT^mC TBT ^mCT^mC T^mCT, B = V′ (DNA TTTTTNTNTNTNTNT; 5-methyl-C, modified nucleotide V', chemistry not fully specified)”, the Tm of triplex in [4] came out at 37.0 °C; in [5] (C:G mismatch), 14.5 °C; in series [5] (G:C mismatch), 25.5 °C; in [5] (T:A mismatch), 11.0 °C; in series [6], 46.0 °C. For the same molecule, the ΔTm/mod of triplex result in series [4] was “+8.0 °C”. Besides, the thermal shift (ΔTm) is −31.5 °C in series [5] (C:G mismatch), −20.5 °C in [5] (G:C mismatch) and −36.0 °C in series [5] (T:A mismatch).
For the molecule “X1′: TFO TTT TT^mC TBT ^mCT^mC T^mCT, B = X′ (DNA TTTTTNTNTNTNTNT; 5-methyl-C, modified nucleotide X', chemistry not fully specified) [reference compound]”, the Tm of triplex in [4] came to 35.5 °C; in series [5] (C:G mismatch), 15.5 °C; in series [5] (G:C mismatch) it was 22.5 °C; in series [5] (T:A mismatch) it was 10.0 °C; in series [6] it was 45.0 °C. Also, the ΔTm/mod of triplex entry in series [4] was “+6.5 °C”. Also, the figures for the ΔTm in series [5] (C:G mismatch), in series [5] (G:C mismatch) and in series [5] (T:A mismatch) were −29.5 °C, −22.5 °C and −35.0 °C, respectively.
For “Y1′: TFO TTT TT^mC TBT ^mCT^mC T^mCT, B = Y′ (DNA TTTTTNTNTNTNTNT; 5-methyl-C, modified nucleotide Y', chemistry not fully specified)”, the Tm of triplex in series [4] came to 37.5 °C; in [5] (C:G mismatch), 13.5 °C; in series [5] (G:C mismatch), 24.5 °C; in series [5] (T:A mismatch), 12.0 °C; in series [6], 47.5 °C. Moreover, in series [4], the ΔTm/mod of triplex entry was “+8.5 °C”. Moreover, the figures for the ΔTm in series [5] (C:G mismatch), in series [5] (G:C mismatch) and in series [5] (T:A mismatch) were −34.0 °C, −23.0 °C and −35.5 °C, respectively.
